Values quoted from earlier work, collected in patent US20090104287A1, “Protocol for AIDS prevention and treatment by nutritional methods” (priority 2002, published 2009).

What was measured:
[1] = tested on: HIV seropositive patients; conditions: supplementation
HIV-infected patients = conditions: supplementation (usually given as N-acetyl cysteine)

| Compound | replenishing whole blood and T cell glutathione [1] | glutathione in CD4 T cells (HIV-infected patients) |
| --- | --- | --- |
| CC(=O)N[C@@H](CS)C(=O)O [N-acetyl cysteine] | often seems effective in replenishing both whole blood and T cell glutathione | – |
| N[C@@H](CS)C(=O)O [cysteine] | – | replenishes low glutathione in CD4 T cells |
